The source of these data is patent US20210198256A1, “COMPOUNDS FOR THE DEGRADATION OF BRD9 OR MTH1” (C4 Therapeutics, Inc., priority 2018, published 2021).

This assay deals with SMARTCAR-MTH1-wt-HiBiT (Jurkat.7 cells). In words: HiBit Lytic Assay (HiBit DC50, MTH1 degraders of Table 2). It counts as cell-based, human. The settings on record: Jurkat.7 SMARTCAR-MTH1-wt-HiBiT cells, compound treatment time 4 hr, 11-point half log dose response. Here is the method: Example 3. HiBit Lytic Assay
• Compound is made at 10 mM, half log dilution, 11 points. • MDR plates can also be ordered from Frontier with same format. • 1. Barcode a 384LDV plate (384-well Low Dead Volume Microplate, Labcyte LP-0200) (Echo compatible) on the left side. • 2. Transfer 13.6 μL of 10 mM compound into column 1 of LDV plate (Labcyte). • 3. Fill column 2-11 and column 23 of MDR plate with 9.30 μL of DMSO. • 4. Serial dilute 3.16 fold from column 1 to 2 by transferring 4.30 μL from column 1 to column 2, and so on to column 11. *Change tip in every dilution to prevent compound carryover effect! • 5. Seal the plate with Plate Sealer, then store the MDR plate at room temperature for short term storage and in −20° C. for long term storage.
• Cells are treated with 30 nL of each compound at 10 mM, half log dilution, 11 points with final concentration of 1000 nM or 833 nM, half log dilution, 11 points, in duplicates. Final DMSO concentration is 0.1%. • 1. Barcode the plates made on the left side and label the plates with silver marker. • 2. Dispense with the following scheme: • a. 30 nL of compound into corresponding wells in cell plates via Echo550 with “MDR32_HiBiT16_30 nL”. Top concentration will be 1000 nM. • 3. Seal the plate with Plate Sealer.
• Cells are dispensed at density specified in Cell Line Table in 384-well microplate. • 1. Culture cells to between 50-80% of confluence in sterile culture flasks of appropriate size. • 2. For Adherent Cell Lines: • a. Aspirate off growth media in culture flask, and wash off the Phenol Red media with 5 mL of 1×PBS. • b. Add 5 mL of Trypsin to the cells, incubate at 37° C. for 5 minutes. • c. Add 5 mL of growth media to the trypsinzed cells, and resuspend. • 3. Remove 10 μL of cells, and resuspend the cells with 10 μL of Trypan Blue. Insert the solution to counting chamber slide, and count the cells via cell counter. • 4. Adjust the cell concentration to specified plating density, and strain the cells with cell strainer. • 5. Dispense the cells via E1-ClipTip™ Electronic Multichannel Pipettes or Multidrop™ Combi Reagent Dispenser with Standard tube dispensing cassette: • a. Prime the cassette with 10-20 mL of ddH2O. • b. Prime the cassette with 10-20 mL of cells. • c. Dispense the cells at low speed for 30 μL/well in Corning® 384 Well Low Flange Black Flat Bottom Polystyrene TC-Treated Microplate. • d. Wash the cassette with 10-20 mL of ddH2O, follow by 10-20 mL of 70% EtOH, then again with 10-20 mL of ddH2O. • 6. Incubate the plates at 37° C.×compound treatment time.
• 1. If not already, bring Nano-Glo® HiBiT Lytic Buffer to room temperature. • 2. Determine the amount of reagent needed. A volume of reagent equal to the volume of media in the well should be added (i.e. 30 μL of cells will need 30 μL of HiBiT Lytic reagent). • 3. Into a given volume of buffer, dilute the substrate 50-fold and the LgBiT protein 100-fold. For example, to make 10 ml of reagent, add the following: • 10 ml Nano-Glo® HiBiT Lytic Buffer • 200 μl Nano-Glo® HiBiT Lytic Substrate • 100 μl LgBiT Protein • The reagent should be reconstituted immediately before use. However, once reconstituted, it should take about 4 hours for the activity to decrease 10%. • 4. Cool down the cell plate to room temperature for 10-15 minutes without lid. • 5. Dispense the HiBiT Lytic Reagent via E1-ClipTip™ Electronic Multichannel Pipettes or Multidrop™ Combi Reagent Dispenser with Standard tube dispensing cassette: • a. Prime the cassette with 10-20 mL of ddH2O. • b. Prime the cassette with 10-20 mL of CTG 2.0. • c. Dispense the HiBiT Lytic Reagent at medium speed for 30 μL/well in cell plate to column 1-23 (column 24 will be used as plate background). • d. Wash the cassette with 10-20 mL of ddH2O, follow by 10-20 mL of 70% EtOH, then again with 10-20 mL of ddH2O. • 6. Incubate the cell plate at room temperature for 10 minutes without lid. • 7. […]
On the technique in general: With HiBiT, luminescence reflects the tagged protein that the partner subunit can reach.
What is called DC50 is the concentration at which degradation of the target reaches its halfway point. Low values mean degradation at low concentration, high ones degradation only at high concentration. On to `CNC(=O)c1cnc2cc(OC)c(-c3ccc(C(=O)NCCCCNC(=O)C(C)Nc4cccc5c4C(=O)N(C4CCC(=O)NC4=O)C5=O)nc3)cc2c1Nc1ccccc1` (stereo in doubt) [Compound 384, 6-(6-((4-((2S)-2-((2-(2,6-dioxopiperidin-3-yl)-1,3-dioxoisoindolin-4-yl)amino)propanamido)butyl)carbamoyl)pyridin-3-yl)-7-methoxy-N-methyl-4-(phenylamino)quinoline-3-carboxamide], for which the DC50 was below 100 nM. For `NC(=O)c1cnc2ccc(-c3ccc(C(=O)NCCCCNC(=O)COc4cccc5c4C(=O)N(C4CCC(=O)NC4=O)C5=O)cc3)cc2c1Nc1ccccc1` (stereo not shown) [Compound 300, 4-anilino-6-[4-[4-[[2-[2-(2,6-dioxo-3-piperidyl)-1,3-dioxo-isoindolin-4-yl]oxyacetyl]amino]butylcarbamoyl]phenyl]quinoline-3-carboxamide] the value was below 100 nM; for `CN(CC(=O)NCCCCNC(=O)c1ccc(-c2ccc3ncc(C(N)=O)c(Nc4ccccc4)c3c2)cc1)c1cccc2c1C(=O)N(C1CCC(=O)NC1=O)C2=O` (stereo not shown) [Compound 301, 4-anilino-6-[4-[4-[[2-[[2-(2,6-dioxo-3-piperidyl)-1,3-dioxo-isoindolin-4-yl]-methyl-amino]acetyl]amino]butylcarbamoyl]phenyl]quinoline-3-carboxamide], below 100 nM; for `NC(=O)c1cnc2ccc(-c3ccc(C(=O)NCCCCNC(=O)CNc4cccc5c4C(=O)N(C4CCC(=O)NC4=O)C5=O)cc3)cc2c1Nc1ccccc1` (stereo not shown) [Compound 302, 6-(4-((4-(2-((2-(2,6-dioxopiperidin-3-yl)-1,3-dioxoisoindolin-4 yl)amino)acetamido)butyl)carbamoyl)phenyl)-4-(phenylamino)quinoline-3-carboxamide], below 100 nM.

The compound `NC(=O)c1cnc2ccc(-c3ccc(C(=O)NCCCCNC(=O)CNc4cccc5c4CN(C4CCC(=O)NC4=O)C5=O)cc3)cc2c1Nc1ccccc1` (stereo not shown) [Compound 303, 4-anilino-6-[4-[4-[[2-[[2-(2,6-dioxo-3-piperidyl)-1-oxo-isoindolin-4-yl]amino]acetyl]amino]butylcarbamoyl]phenyl]quinoline-3-carboxamide] showed a DC50 below 100 nM. For `NC(=O)c1cnc2ccc(-c3ccc(C(=O)NCCCNC(=O)COc4cccc5c4C(=O)N(C4CCC(=O)NC4=O)C5=O)cc3)cc2c1Nc1ccccc1` (stereo not shown) [Compound 306, 6-(4-((3-(2-((2-(2,6-dioxopiperidin-3-yl)-1,3-dioxoisoindolin-4-yl)oxy)acetamido)propyl)carbamoyl)phenyl)-4-(phenylamino)quinoline-3-carboxamide] the value was below 100 nM; for `NC(=O)c1cnc2ccc(-c3ccc(C(=O)NCCCNC(=O)CNc4cccc5c4C(=O)N(C4CCC(=O)NC4=O)C5=O)cc3)cc2c1Nc1ccccc1` (stereo not shown) [Compound 307, 6-(4-((3-(2-((2-(2,6-dioxopiperidin-3-yl)-1,3-dioxoisoindolin-4-yl)amino)acetamido)propyl)carbamoyl)phenyl)-4-(phenylamino)quinoline-3-carboxamide], below 100 nM. For `NC(=O)c1cnc2ccc(-c3ccc(C(=O)N[C@H]4CC[C@@H](NC(=O)CNC(=O)COc5cccc6c5C(=O)N(C5CCC(=O)NC5=O)C6=O)CC4)cc3)cc2c1Nc1ccccc1` (stereo partly shown) [Compound 308, 6-(4-(((1s,4s)-4-(2-(2-((2-(2,6-dioxopiperidin-3-yl)-1,3-dioxoisoindolin-4-yl)oxy)acetamido)acetamido)cyclohexyl)carbamoyl)phenyl)-4-(phenylamino)quinoline-3-carboxamide] the value was below 100 nM; for `NC(=O)c1cnc2ccccc2c1Nc1ccc(-c2ccc(C(=O)NCCCCNC(=O)COc3cccc4c3C(=O)N(C3CCC(=O)NC3=O)C4=O)cc2)cc1` (stereo not shown) [Compound 309, 4-[4-[4-[4-[[2-[2-(2,6-dioxo-3-piperidyl)-1,3-dioxo-isoindolin-4-yl]oxyacetyl]amino]butylcarbamoyl]phenyl]anilino]quinoline-3-carboxamide], below 100 nM. Regarding `NC(=O)c1cnc2ccc(N3CCN(C(=O)CCCCCNC(=O)COc4cccc5c4C(=O)N(C4CCC(=O)NC4=O)C5=O)CC3)cc2c1Nc1ccccc1` (stereo not shown) [Compound 310, 6-(4-(6-(2-((2-(2,6-dioxopiperidin-3-yl)-1,3-dioxoisoindolin-4-yl)oxy)acetamido)hexanoyl)piperazin-1-yl)-4-(phenylamino)quinoline-3-carboxamide], the DC50 was below 1000 nM. Under `CN(CC(=O)NCCOCCNC(=O)c1ccc(-c2ccc3ncc(C(N)=O)c(Nc4ccccc4)c3c2)cc1)c1cccc2c1C(=O)N(C1CCC(=O)NC1=O)C2=O` (stereo not shown) [Compound 311, 4-anilino-6-[4-[2-[2-[[2-[[2-(2,6-dioxo-3-piperidyl)-1,3-dioxo-isoindolin-4-yl]-methyl-amino]acetyl]amino]ethoxy]ethylcarbamoyl]phenyl]quinoline-3-carboxamide] stands below 1000 nM; under `CN(CC(=O)NCCCCCC(=O)N1CCC(c2ccc3ncc(C(N)=O)c(Nc4ccccc4)c3c2)CC1)c1cccc2c1C(=O)N(C1CCC(=O)NC1=O)C2=O` (stereo not shown) [Compound 312, 4-anilino-6-[1-[6-[[2-[[2-(2,6-dioxo-3-piperidyl)-1,3-dioxo-isoindolin-4-yl]-methyl-amino]acetyl]amino]hexanoyl]-4-piperidyl]quinoline-3-carboxamide], below 1000 nM; under `CNC(=O)c1cnc2ccc(-c3ccc(C(=O)NCCCCNC(=O)COc4cccc5c4C(=O)N(C4CCC(=O)NC4=O)C5=O)cc3)cc2c1Nc1ccccc1` (stereo not shown) [Compound 340, 4-anilino-6-[4-[4-[[2-[2-(2,6-dioxo-3-piperidyl)-1,3-dioxo-isoindolin-4-yl]oxyacetyl]amino]butylcarbamoyl]phenyl]-N-methyl-quinoline-3-carboxamide], below 100 nM. Under `CNC(=O)c1cnc2ccc(-c3ccc(C(=O)NCCCC(=O)N4CCN(c5cccc6c5C(=O)N(C5CCC(=O)NC5=O)C6=O)CC4)cc3)cc2c1Nc1ccccc1` (stereo not shown) [Compound 343, 4-anilino-6-[4-[[4-[4-[2-(2,6-dioxo-3-piperidyl)-1,3-dioxo-isoindolin-4-yl]piperazin-1-yl]-4-oxo-butyl]carbamoyl]phenyl]-N-methyl-quinoline-3-carboxamide] stands below 100 nM; under `CNC(=O)c1cnc2cc(OC)c(-c3ccc(C(=O)NCCCCNC(=O)CNc4cccc5c4C(=O)N(C4CCC(=O)NC4=O)C5=O)cc3)cc2c1Nc1ccccc1` (stereo not shown) [Compound 344, 6-(4-((4-(2-((2-(2,6-dioxopiperidin-3-yl)-1,3-dioxoisoindolin-4-yl)amino)acetamido)butyl)carbamoyl)phenyl)-7-methoxy-N-methyl-4-(phenylamino)quinoline-3-carboxamide], below 100 nM. Under `CNC(=O)c1cnc2cc(OC)c(-c3ccc(C(=O)NCCCCNC(=O)CN(C)c4cccc5c4C(=O)N(C4CCC(=O)NC4=O)C5=O)cc3)cc2c1Nc1ccccc1` (stereo not shown) [Compound 345, 6-(4-((4-(2-((2-(2,6-dioxopiperidin-3-yl)-1,3-dioxoisoindolin-4-yl)(methyl)amino)acetamido)butyl)carbamoyl)phenyl)-7-methoxy-N-methyl-4-(phenylamino)quinoline-3-carboxamide] stands below 100 nM.
